Results reported in patent publication US20240269298A1, “PHOSPHONYL DERIVATIVE, AND COMPOSITION AND PHARMACEUTICAL APPLICATION THEREOF” (XIZANG HAISCO PHARMACEUTICAL CO., LTD., priority 2021, published 2024).
Like-named read-outs stand apart in the source and are kept apart here.

System: NCI-H1975 (EGFR-L858R-T790M) cells
Experiment: Inhibitory activity on proliferation of NCI-H1975 (EGFR-L858R-T790M) cells (CTG, 72 h)
Type: cell-based
Settings: Homo sapiens
Method: NCI-H1975 (EGFR-L858R-T790M) and A431 (EGFR-WT) cells were purchased from ATCC and cultured in an incubator at 37° C. with 5% CO2, and the culture mediums were RPMI1640+10% FBS and DMEM+10% FBS, respectively. On the first day, NCI-H1975 (EGFR-L858R-T790M) and A431 (EGFR-WT) cells in the logarithmic phase were collected, and viable cells were counted using an automatic cell analyzer (countstar). The cell suspensions were adjusted with the culture mediums and plated on a 96-well cell culture plate at 1000 cells/well for NCI-H1975 (EGFR-L858R-T790M) cells and at 3000 cells/well for A431 cells. The next day, the culture mediums were aspirated, and 90 μL of fresh culture mediums and 10 μL of the compounds at different concentrations were added to each well, wherein the final concentration of DMSO in each well was 0.1%. The plate was cultured in the incubator at 37° C. with 5% CO2 for 72 hours. After 72 hours of drug treatment, 50 μL of CTG solution (promega, G7572), which was already pre-melted and equilibrated to room temperature, was added to each well, and the mixtures were uniformly mixed for 2 min using a microplate shaker. The plate was placed at room temperature for 10 min, and then […] signal values were measured using a microplate reader (PHERAstar FSX).
Surviving cells % was calculated based on Vsample/Vvehicle control×100%, wherein Vsample was the readout of the drug-treated group, and Vvehicle control was the average value of the vehicle control group. Using the origin 9.2 software and nonlinear regression model, S-shaped dose-survival curves were plotted, and IC50 values were calculated.

[1] = read-out: IC50 (value in brackets)

Compound | IC50 (read-out: IC50 (class symbol)) [nM] | IC50 [1] [nM]
COc1cc(N2CCC(N3CCC(CN4CCN(c5ccc6c(c5)C(=O)N(C5CCC(=O)NC5=O)C6=O)CC4)CC3)CC2)c(-c2cnn(C)c2)cc1Nc1ncc(Cl)c(Nc2ccc(-c3ccccc3)cc2P(C)(C)=O)n1 (stereo not drawn) [Compound 53, 5-(4-((1′-(4-((5-chloro-4-((3-(dimethylphosphoryl)-[1,1′-biphenyl]-4-yl)amino)pyrimidin-2-yl)amino)-5-methoxy-2-(1-methyl-1H-pyrazol-4-yl)phenyl)-[1,4′-bipiperidin]-4-yl)methyl)piperazin-1-yl)-2-(2,6-dioxopiperidin-3-yl)isoindoline-1,3-dione] | 100 to 500 | 182
COc1cc(N2CCC3(CCN(Cc4cccc(NC5CCC(=O)NC5=O)c4)CC3)CC2)c(-c2cnn(C)c2)cc1Nc1ncc(Br)c(Nc2ccc(-c3ccccc3)cc2P(C)(C)=O)n1 (stereo not drawn) [Compound 129, 3-((3-((9-(4-((5-bromo-4-((3-(dimethylphosphoryl)-[1,1′-biphenyl]-4-yl)amino)pyrimidin-2-yl)amino)-5-methoxy-2-(1-methyl-1H-pyrazol-4-yl)phenyl)-3,9-diazaspiro[5.5]undecan-3-yl)methyl)phenyl)amino)piperidine-2,6-dione] | 100 to 500 | 125
COc1cc(N2CCN(c3ccc4c(c3)C(=O)N(C3CCC(=O)NC3=O)C4=O)CC2)c(-c2cnn(C)c2)cc1Nc1ncc(Br)c(Nc2ccccc2P(C)(C)=O)n1 (stereo not drawn) [Compound 169, 5-(4-(4-((5-bromo-4-((2-(dimethylphosphoryl)phenyl)amino)pyrimidin-2-yl)amino)-5-methoxy-2-(1-methyl-1H-pyrazol-4-yl)phenyl)piperazin-1-yl)-2-(2,6-dioxopiperidin-3-yl)isoindoline-1,3-dione] | 100 to 500 | 111
COc1cc(N2CCC(N3CCN(c4ccc5c(c4)C(=O)N(C4CCC(=O)NC4=O)C5=O)CC3)CC2)c(-c2cnn(C)c2)cc1Nc1ncc(Cl)c(Nc2ccccc2P(C)(C)=O)n1 (stereo not drawn) [Compound 115, 5-(4-(1-(4-((5-chloro-4-((2-(dimethylphosphoryl)phenyl)amino)pyrimidin-2-yl)amino)-5-methoxy-2-(1-methyl-1H-pyrazol-4-yl)phenyl)piperidin-4-yl)piperazin-1-yl)-2-(2,6-dioxopiperidin-3-yl)isoindoline-1,3-dione] | < 100 | 73
COc1cc(N2CCC(CN3CCN(c4ccc(NC5CCC(=O)NC5=O)cc4F)CC3)CC2)c(-c2cnn(C)c2)cc1Nc1ncc(Cl)c(Nc2ccc(F)cc2P(C)(C)=O)n1 (stereo not drawn) [Compound 159, 3-((4-(4-((1-(4-((5-chloro-4-((2-(dimethylphosphoryl)-4-fluorophenyl)amino)pyrimidin-2-yl)amino)-5-methoxy-2-(1-methyl-1H-pyrazol-4-yl)phenyl)piperidin-4-yl)methyl)piperazin-1-yl)-3-fluorophenyl)amino)piperidine-2,6-dione] | < 100 | 21
COc1cc(N2CCC(N3CCC(CN4CCN(c5ccc6c(c5)C(=O)N(C5CCC(=O)NC5=O)C6=O)CC4)CC3)CC2)c(-c2cnn(C)c2)cc1Nc1ncc(Cl)c(Nc2ccc3nccnc3c2P(C)(C)=O)n1 (stereo not drawn) [Compound 8, 5-(4-((1′-(4-((5-chloro-4-((5-(dimethylphosphoryl)quinoxalin-6-yl)amino)pyrimidin-2-yl)amino)-5-methoxy-2-(1-methyl-1H-pyrazol-4-yl)phenyl)-[1,4′-bipiperidin]-4-yl)methyl)piperazin-1-yl)-2-(2,6-dioxopiperidin-3-yl)isoindoline-1,3-dione] | < 100 | 34
COc1cc(N2CCC(CN3CCN(c4ccc(NC5CCC(=O)NC5=O)cc4F)CC3)CC2)c(-c2cnn(C)c2)cc1Nc1ncc(Cl)c(Nc2ccccc2P(C)(C)=O)n1 (stereo not drawn) [Compound 157, 3-((4-(4-((1-(4-((5-chloro-4-((2-(dimethylphosphoryl)phenyl)amino)pyrimidin-2-yl)amino)-5-methoxy-2-(1-methyl-1H-pyrazol-4-yl)phenyl)piperidin-4-yl)methyl)piperazin-1-yl)-3-fluorophenyl)amino)piperidine-2,6-dione] | < 100 | 29
COc1cc(N2CCN(C3CN(c4ccc5c(c4)C(=O)N(C4CCC(=O)NC4=O)C5=O)C3)CC2)c(-c2cnn(C)c2)cc1Nc1ncc(Cl)c(Nc2ccccc2P(C)(C)=O)n1 (stereo not drawn) [Compound 149, 5-(3-(4-(4-((5-chloro-4-((2-(dimethylphosphoryl)phenyl)amino)pyrimidin-2-yl)amino)-5-methoxy-2-(1-methyl-1H-pyrazol-4-yl)phenyl)piperazin-1-yl)azetidin-1-yl)-2-(2,6-dioxopiperidin-3-yl)isoindoline-1,3-dione] | 100 to 500 | 116
COc1cc(N2CCC3(CCN(CC4CCN(c5cc6c(cc5F)C(=O)N(C5CCC(=O)NC5=O)C6=O)CC4)CC3)CC2)c(-c2cnn(C)c2)cc1Nc1ncc(Cl)c(Nc2ccc(-c3ccccc3)cc2P(C)(C)=O)n1 (stereo not drawn) [Compound 51, 5-(4-((9-(4-((5-chloro-4-((3-(dimethylphosphoryl)-[1,1′-biphenyl]-4-yl)amino)pyrimidin-2-yl)amino)-5-methoxy-2-(1-methyl-1H-pyrazol-4-yl)phenyl)-3,9-diazaspiro[5.5]undecan-3-yl)methyl)piperidin-1-yl)-2-(2,6-dioxopiperidin-3-yl)-6-fluoroisoindoline-1,3-dione] | < 100 | 72
COc1cc(N2CCC3(CC2)CN(CC2CCN(c4cc5c(cc4F)C(=O)N(C4CCC(=O)NC4=O)C5=O)CC2)C3)c(-c2cnn(C)c2)cc1Nc1ncc(Cl)c(Nc2ccc(-c3ccccc3)cc2P(C)(C)=O)n1 (stereo not drawn) [Compound 94, 5-(4-((7-(4-((5-chloro-4-((3-(dimethylphosphoryl)-[1,1′-biphenyl]-4-yl)amino)pyrimidin-2-yl)amino)-5-methoxy-2-(1-methyl-1H-pyrazol-4-yl)phenyl)-2,7-diazaspiro[3.5]nonan-2-yl)methyl)piperidin-1-yl)-2-(2,6-dioxopiperidin-3-yl)-6-fluoroisoindoline-1,3-dione] | < 100 | 77
COc1cc(N2CCC3(CCN(CC4CCN(c5ccc6c(c5)C(=O)N(C5CCC(=O)NC5=O)C6=O)CC4)CC3)CC2)c(-c2cnn(C)c2)cc1Nc1ncc(Br)c(Nc2ccc3nccnc3c2P(C)(C)=O)n1 (stereo not drawn) [Trifluoroacetate of compound 20, 5-(4-((9-(4-((5-bromo-4-((5-(dimethylphosphoryl)quinoxalin-6-yl)amino)pyrimidin-2-yl)amino)-5-methoxy-2-(1-methyl-1H-pyrazol-4-yl)phenyl)-3,9-diazaspiro[5.5]undecan-3-yl)methyl)piperidin-1-yl)-2-(2,6-dioxopiperidin-3-yl)isoindoline-1,3-dione] | < 100 | 14
COc1cc(N2CCC(CN3CCN(c4ccc(N5CCC(=O)NC5=O)cc4)CC3)CC2)c(-c2cnn(C)c2)cc1Nc1ncc(Cl)c(Nc2ccc(C3CC3)cc2P(C)(C)=O)n1 [Compound 131, 1-(4-(4-((1-(4-((5-chloro-4-((4-cyclopropyl-2-(dimethylphosphoryl)phenyl)amino)pyrimidin-2-yl)amino)-5-methoxy-2-(1-methyl-1H-pyrazol-4-yl)phenyl)piperidin-4-yl)methyl)piperazin-1-yl)phenyl)dihydropyrimidine-2,4(1H,3H)-dione] | 100 to 500 | 214
